Measured values published in PubChem BioAssay AID2060882 (Molecular Pharmacology Branch, DTP, NCI, 2025).

System: 898857-211-R-J1-PDC complex spheroids, growth % test/control
Assay: Anticancer human tumor 898857-211-R-J1-PDC patient-derived melanoma cell line growth inhibition [RAS]
Settings: for viability, T/C: stronger effect = lower value; active = viability on the fitted dose curve at most 10% of control; inactive = the rest
How it was run: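 Agents were tested in combination matrices in half-log decrements from a top concentration at or near clinical Cmax (10 microM if undetermined). Targets were multi-cell spheroids of tumour lines plus HUVEC and MSC stromal cells.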
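Note: spheroids exposed to compound for seven days before readout.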
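Throughout, for viability, T/C: 100% = DMSO vehicle control wells.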

NC1c2ccccc2OC12CCN(c1cnc3c(N4CCCc5ncccc54)n[nH]c3n1)CC2 (stereo not drawn) + CCn1c(-c2cc(N3CCN(C)CC3)cnc2C(C)OC)c2c3cc(ccc31)-c1csc(n1)CC(NC(=O)C1CC1C)C(=O)N1CCCC(N1)C(=O)OCC(C)(C)C2
inactive: viability, T/C (second compound 0.000949 µM, first compound 0.0316 µM) 101% | viability, T/C (second compound 0.000949 µM, first compound 0.1 µM) 87.5% | viability, T/C (second compound 0.000949 µM, first compound 0.316 µM) 91.5% | viability, T/C (second compound 0.000949 µM, first compound 1 µM) 81.9% | viability, T/C (second compound 0.000949 µM, first compound 3.16 µM) 81.4% | viability, T/C (second compound 0.000949 µM, first compound 10 µM) 51% | viability, T/C (second compound 0.003 µM, first compound 0.0316 µM) 103% | viability, T/C (second compound 0.003 µM, first compound 0.1 µM) 87.9% | viability, T/C (second compound 0.003 µM, first compound 0.316 µM) 101% | viability, T/C (second compound 0.003 µM, first compound 1 µM) 85.7% | viability, T/C (second compound 0.003 µM, first compound 3.16 µM) 81.3% | viability, T/C (second compound 0.003 µM, first compound 10 µM) 55.5% | viability, T/C (second compound 0.00949 µM, first compound 0.0316 µM) 87.7% | viability, T/C (second compound 0.00949 µM, first compound 0.1 µM) 97.7% | viability, T/C (second compound 0.00949 µM, first compound 0.316 µM) 92.1% | viability, T/C (second compound 0.00949 µM, first compound 1 µM) 102% | viability, T/C (second compound 0.00949 µM, first compound 3.16 µM) 74.3% | viability, T/C (second compound 0.00949 µM, first compound 10 µM) 56.7% | viability, T/C (second compound 0.03 µM, first compound 0.0316 µM) 91.5% | viability, T/C (second compound 0.03 µM, first compound 0.1 µM) 87.8% | viability, T/C (second compound 0.03 µM, first compound 0.316 µM) 93.8% | viability, T/C (second compound 0.03 µM, first compound 1 µM) 73.5% | viability, T/C (second compound 0.03 µM, first compound 3.16 µM) 81.9% | viability, T/C (second compound 0.03 µM, first compound 10 µM) 50% | viability, T/C (second compound 0.0949 µM, first compound 0.0316 µM) 113% | viability, T/C (second compound 0.0949 µM, first compound 0.1 µM) 99.8% | viability, T/C (second compound 0.0949 µM, first compound 0.316 µM) 102% | viability, T/C (second compound 0.0949 µM, first compound 1 µM) 88.5% | viability, T/C (second compound 0.0949 µM, first compound 3.16 µM) 83.9% | viability, T/C (second compound 0.0949 µM, first compound 10 µM) 43% | viability, T/C (second compound 0.3 µM, first compound 0.0316 µM) 112% | viability, T/C (second compound 0.3 µM, first compound 0.1 µM) 92.6% | viability, T/C (second compound 0.3 µM, first compound 0.316 µM) 81.3% | viability, T/C (second compound 0.3 µM, first compound 1 µM) 98% | viability, T/C (second compound 0.3 µM, first compound 3.16 µM) 78.7% | viability, T/C (second compound 0.3 µM, first compound 10 µM) 43.5%
8.35 µM: IC50 (curve of first compound, second compound 0.0949 µM)
8.21 µM: IC50 (curve of first compound, second compound 0.3 µM)
> 10 µM: IC50 (curve of first compound, second compound 0.000949 µM) | IC50 (curve of first compound, second compound 0.003 µM) | IC50 (curve of first compound, second compound 0.00949 µM) | IC50 (curve of first compound, second compound 0.03 µM)

C[C@@H](NC(=O)c1ncnc(N)c1Cl)c1ncc(C(=O)Nc2cc(C(F)(F)F)c(Cl)cn2)s1 + C#Cc1c(F)ccc2cc(O)cc(-c3ncc4c(N5CC6CCC(C5)N6)nc(OCC56CCCN5CC(F)C6)nc4c3F)c12
6.76 µM: IC50 (curve of first compound, second compound 0.316 µM)
6.7 µM: IC50 (curve of first compound, second compound 0.0316 µM)
5.98 µM: IC50 (curve of first compound, second compound 0.1 µM)
inactive: viability, T/C (second compound 0.0316 µM, first compound 0.0316 µM) 140% | viability, T/C (second compound 0.0316 µM, first compound 0.1 µM) 112% | viability, T/C (second compound 0.0316 µM, first compound 0.316 µM) 104% | viability, T/C (second compound 0.0316 µM, first compound 1 µM) 88.3% | viability, T/C (second compound 0.0316 µM, first compound 3.16 µM) 63% | viability, T/C (second compound 0.0316 µM, first compound 10 µM) 41.3% | viability, T/C (second compound 0.1 µM, first compound 0.0316 µM) 124% | viability, T/C (second compound 0.1 µM, first compound 0.1 µM) 126% | viability, T/C (second compound 0.1 µM, first compound 0.316 µM) 99.4% | viability, T/C (second compound 0.1 µM, first compound 1 µM) 88.3% | viability, T/C (second compound 0.1 µM, first compound 3.16 µM) 65.8% | viability, T/C (second compound 0.1 µM, first compound 10 µM) 37.7% | viability, T/C (second compound 0.316 µM, first compound 0.0316 µM) 121% | viability, T/C (second compound 0.316 µM, first compound 0.1 µM) 125% | viability, T/C (second compound 0.316 µM, first compound 0.316 µM) 113% | viability, T/C (second compound 0.316 µM, first compound 1 µM) 89.3% | viability, T/C (second compound 0.316 µM, first compound 3.16 µM) 66.3% | viability, T/C (second compound 0.316 µM, first compound 10 µM) 42% | viability, T/C (second compound 1 µM, first compound 0.0316 µM) 126% | viability, T/C (second compound 1 µM, first compound 0.1 µM) 122% | viability, T/C (second compound 1 µM, first compound 0.316 µM) 115% | viability, T/C (second compound 1 µM, first compound 1 µM) 97.3% | viability, T/C (second compound 1 µM, first compound 3.16 µM) 63.4% | viability, T/C (second compound 1 µM, first compound 10 µM) 42% | viability, T/C (second compound 3.16 µM, first compound 0.0316 µM) 127% | viability, T/C (second compound 3.16 µM, first compound 0.1 µM) 126% | viability, T/C (second compound 3.16 µM, first compound 0.316 µM) 108% | viability, T/C (second compound 3.16 µM, first compound 1 µM) 86.5% | viability, T/C (second compound 3.16 µM, first compound 3.16 µM) 64.1% | viability, T/C (second compound 3.16 µM, first compound 10 µM) 31.5% | viability, T/C (second compound 10 µM, first compound 0.0316 µM) 77.3% | viability, T/C (second compound 10 µM, first compound 0.1 µM) 70.7% | viability, T/C (second compound 10 µM, first compound 0.316 µM) 47.3% | viability, T/C (second compound 10 µM, first compound 1 µM) 38.5% | viability, T/C (second compound 10 µM, first compound 3.16 µM) 27.4% | viability, T/C (second compound 10 µM, first compound 10 µM) 19%
6.54 µM: IC50 (curve of first compound, second compound 1 µM)
0.358 µM: IC50 (curve of first compound, second compound 10 µM)
5.02 µM: IC50 (curve of first compound, second compound 3.16 µM)

CCc1c2c(nc3ccc(O)cc13)-c1cc3c(c(=O)n1C2)COC(=O)[C@]3(O)CC
10.2% [middle of 4 runs]: viability, T/C (compound 0.03 µM)
4.92 nM [middle of 4 runs]: IC50 (curve of compound)
active: viability, T/C (compound 0.0949 µM) 7.84% [middle of 4 runs] | viability, T/C (compound 0.3 µM) 7.49% [middle of 4 runs]
inactive: viability, T/C (compound 0.000949 µM) 96.5% [middle of 4 runs] | viability, T/C (compound 0.003 µM) 65.1% [middle of 4 runs] | viability, T/C (compound 0.00949 µM) 30.4% [middle of 4 runs]

C=CC(=O)N1CCN(c2nc(OCC3CCCN3C)nc3c(F)c(-c4nc(N)cc(C)c4C(F)(F)F)c(Cl)cc23)C(C)C1 (stereo not drawn)
> 1 µM: IC50 (compound alone, run of 09/09/2024) | IC50 (curve of compound)
inactive: viability, T/C (compound 0.00316 µM, compound 0.0316 µM) 121% | viability, T/C (compound 0.00316 µM, compound 0.1 µM) 105% | viability, T/C (compound 0.00316 µM, compound 0.316 µM) 117% | viability, T/C (compound 0.00316 µM, compound 1 µM) 124% | viability, T/C (compound 0.00316 µM) 110% [middle of 11 runs] | viability, T/C (compound 0.01 µM, compound 0.00316 µM) 98.1% | viability, T/C (compound 0.01 µM, compound 0.0316 µM) 108% | viability, T/C (compound 0.01 µM, compound 0.1 µM) 112% | viability, T/C (compound 0.01 µM, compound 0.316 µM) 116% | viability, T/C (compound 0.01 µM, compound 1 µM) 127% | viability, T/C (compound 0.01 µM) 108% [middle of 12 runs] | viability, T/C (compound 0.0316 µM, compound 0.00316 µM) 102% | viability, T/C (compound 0.0316 µM, compound 0.01 µM) 108% | viability, T/C (compound 0.0316 µM, compound 0.1 µM) 103% | viability, T/C (compound 0.0316 µM, compound 0.316 µM) 115% | viability, T/C (compound 0.0316 µM, compound 1 µM) 122% | viability, T/C (compound 0.0316 µM) 112% [middle of 12 runs] | viability, T/C (compound 0.1 µM, compound 0.00316 µM) 109% | viability, T/C (compound 0.1 µM, compound 0.01 µM) 103% | viability, T/C (compound 0.1 µM, compound 0.0316 µM) 122% | viability, T/C (compound 0.1 µM, compound 0.316 µM) 118% | viability, T/C (compound 0.1 µM, compound 1 µM) 127% | viability, T/C (compound 0.1 µM) 114% [middle of 12 runs] | viability, T/C (compound 0.316 µM, compound 0.00316 µM) 125% | viability, T/C (compound 0.316 µM, compound 0.01 µM) 121% | viability, T/C (compound 0.316 µM, compound 0.0316 µM) 119% | viability, T/C (compound 0.316 µM, compound 0.1 µM) 125% | viability, T/C (compound 0.316 µM, compound 1 µM) 127% | viability, T/C (compound 0.316 µM) 115% [middle of 12 runs] | viability, T/C (compound 1 µM, compound 0.00316 µM) 115% | viability, T/C (compound 1 µM, compound 0.01 µM) 126% | viability, T/C (compound 1 µM, compound 0.0316 µM) 123% | viability, T/C (compound 1 µM, compound 0.1 µM) 112% | viability, T/C (compound 1 µM, compound 0.316 µM) 119% | viability, T/C (compound 1 µM) 116% [middle of 12 runs]
